Test results reported in ChEMBL document CHEMBL1136299, “Adenosine-anchored triphosphate subsite probing: distinguishing between HER-2 and HER-4 tyrosine protein kinases” (Bioorg Med Chem Lett, 2003).
Activity calls are given as the source filed them. The calls are words filed in the database; no cut-off is given here.

Tests used:
[1] = molecular target: Receptor tyrosine-protein kinase erbB-4 (Homo sapiens) (UniProt Q15303); test: Ratio of HER-4 inhibition by diastereomers (inactive)
[2] = molecular target: Receptor tyrosine-protein kinase erbB-2 (Homo sapiens) (UniProt P04626); test: Ratio of HER-2 inhibition by diastereomers
Chain of Receptor tyrosine-protein kinase erbB-2 (Homo sapiens) (P04626 whole entry): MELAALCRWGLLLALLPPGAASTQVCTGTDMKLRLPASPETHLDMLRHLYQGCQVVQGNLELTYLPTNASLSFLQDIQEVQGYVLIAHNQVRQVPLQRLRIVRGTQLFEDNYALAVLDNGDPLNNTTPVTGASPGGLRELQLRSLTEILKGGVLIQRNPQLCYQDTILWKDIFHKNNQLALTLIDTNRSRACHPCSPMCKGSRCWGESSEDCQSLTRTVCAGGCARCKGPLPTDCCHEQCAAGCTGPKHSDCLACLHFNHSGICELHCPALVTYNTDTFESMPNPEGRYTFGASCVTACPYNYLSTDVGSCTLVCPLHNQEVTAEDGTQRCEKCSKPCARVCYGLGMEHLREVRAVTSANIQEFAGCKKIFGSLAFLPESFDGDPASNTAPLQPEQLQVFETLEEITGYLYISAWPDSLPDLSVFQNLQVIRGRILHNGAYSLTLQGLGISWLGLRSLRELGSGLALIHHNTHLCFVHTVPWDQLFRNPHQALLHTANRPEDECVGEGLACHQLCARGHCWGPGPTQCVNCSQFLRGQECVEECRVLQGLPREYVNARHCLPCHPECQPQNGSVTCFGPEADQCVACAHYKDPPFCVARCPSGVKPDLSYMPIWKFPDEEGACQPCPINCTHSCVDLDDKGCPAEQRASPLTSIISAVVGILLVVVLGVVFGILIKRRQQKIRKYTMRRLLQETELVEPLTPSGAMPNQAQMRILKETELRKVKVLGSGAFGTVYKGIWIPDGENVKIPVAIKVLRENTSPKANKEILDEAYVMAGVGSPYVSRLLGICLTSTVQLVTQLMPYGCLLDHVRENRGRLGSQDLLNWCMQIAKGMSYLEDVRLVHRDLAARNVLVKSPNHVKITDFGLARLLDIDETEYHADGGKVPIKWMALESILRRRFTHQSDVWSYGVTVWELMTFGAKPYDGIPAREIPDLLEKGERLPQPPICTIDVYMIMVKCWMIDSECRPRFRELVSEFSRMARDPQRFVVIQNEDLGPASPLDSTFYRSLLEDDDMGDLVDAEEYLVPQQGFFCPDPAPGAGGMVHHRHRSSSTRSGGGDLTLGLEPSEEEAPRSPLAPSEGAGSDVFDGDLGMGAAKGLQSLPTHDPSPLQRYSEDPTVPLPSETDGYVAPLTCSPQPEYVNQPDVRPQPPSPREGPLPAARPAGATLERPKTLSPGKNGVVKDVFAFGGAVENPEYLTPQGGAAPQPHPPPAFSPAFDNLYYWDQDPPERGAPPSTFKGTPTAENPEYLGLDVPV

[3] = molecular target: Receptor tyrosine-protein kinase erbB-4 (Homo sapiens) (UniProt Q15303); test: Ratio of HER-4 inhibition by diastereomers

Chain of Receptor tyrosine-protein kinase erbB-4 (Homo sapiens) (Q15303 whole entry): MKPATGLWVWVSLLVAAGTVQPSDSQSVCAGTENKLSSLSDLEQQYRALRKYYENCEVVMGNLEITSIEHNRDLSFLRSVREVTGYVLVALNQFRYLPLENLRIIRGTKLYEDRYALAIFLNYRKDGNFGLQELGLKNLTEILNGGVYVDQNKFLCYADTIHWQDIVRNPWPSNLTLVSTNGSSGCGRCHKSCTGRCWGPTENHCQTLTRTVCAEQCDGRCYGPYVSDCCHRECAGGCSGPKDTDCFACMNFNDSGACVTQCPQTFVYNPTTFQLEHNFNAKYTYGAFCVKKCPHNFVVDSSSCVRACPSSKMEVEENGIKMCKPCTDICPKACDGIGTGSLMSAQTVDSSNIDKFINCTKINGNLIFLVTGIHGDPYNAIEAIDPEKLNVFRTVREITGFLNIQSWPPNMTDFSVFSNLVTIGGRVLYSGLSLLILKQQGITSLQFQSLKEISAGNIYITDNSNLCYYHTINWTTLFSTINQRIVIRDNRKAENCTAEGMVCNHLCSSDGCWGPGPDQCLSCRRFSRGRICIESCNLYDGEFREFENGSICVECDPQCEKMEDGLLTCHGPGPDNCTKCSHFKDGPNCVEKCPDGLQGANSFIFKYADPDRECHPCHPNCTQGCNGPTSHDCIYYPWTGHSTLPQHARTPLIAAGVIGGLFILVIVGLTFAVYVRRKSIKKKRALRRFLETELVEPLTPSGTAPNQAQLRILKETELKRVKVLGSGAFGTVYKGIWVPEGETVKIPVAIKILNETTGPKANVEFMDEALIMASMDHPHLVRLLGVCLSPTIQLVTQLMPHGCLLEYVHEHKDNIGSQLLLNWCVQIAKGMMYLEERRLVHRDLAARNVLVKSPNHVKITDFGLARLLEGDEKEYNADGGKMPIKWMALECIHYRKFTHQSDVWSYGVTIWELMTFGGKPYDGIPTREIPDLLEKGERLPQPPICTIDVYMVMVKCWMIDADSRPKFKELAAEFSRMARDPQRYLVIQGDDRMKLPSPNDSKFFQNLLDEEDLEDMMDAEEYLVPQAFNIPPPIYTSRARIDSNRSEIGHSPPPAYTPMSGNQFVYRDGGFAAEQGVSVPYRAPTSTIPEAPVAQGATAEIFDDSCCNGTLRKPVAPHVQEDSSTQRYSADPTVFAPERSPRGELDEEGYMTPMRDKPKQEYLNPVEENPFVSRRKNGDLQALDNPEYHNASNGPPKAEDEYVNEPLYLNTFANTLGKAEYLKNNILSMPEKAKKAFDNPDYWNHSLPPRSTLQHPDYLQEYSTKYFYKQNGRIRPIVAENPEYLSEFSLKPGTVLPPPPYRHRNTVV

Row | Structure (SMILES) | Selectivity [1] | Selectivity [2] | Selectivity [3]
1 | CCOC1CC2(C)OC1(C(=O)NC[C@H]1O[C@@H](n3cnc4c(N)ncnc43)[C@H](O)[C@@H]1O)C(=O)N2C (some centres not stated) | inactive | 9.1 | 
2 | CCOC1CC2(C[C@H]3O[C@@H](n4cnc5c(N)ncnc54)[C@H](O)[C@@H]3O)OC1(C(=O)OC)C(=O)N2C (some centres not stated) |  | 34.4 | 1.6
3 | CCOC1CC2(C[C@H]3O[C@@H](n4cnc5c(NC(=O)OCc6ccccc6)ncnc54)[C@H](O)[C@@H]3O)OC1(C(=O)OC)C(=O)N2C.CCOC1C[C@@]2(C[C@H]3O[C@@H](n4cnc5c(NC(=O)OCc6ccccc6)ncnc54)[C@H](O)[C@@H]3O)OC1(C(=O)OC)C(=O)N2C (some centres not stated) | inactive | 3.1 | 

The next lines start with the values.

Row | Selectivity [1] | Selectivity [2] | Selectivity [3] | Structure (SMILES)
4 | inactive | 1.7 |  | CCOC1CC2(C)OC1(C(=O)OC)C(=O)N2C[C@H]1O[C@@H](n2cnc3c(NC(=O)OCc4ccccc4)ncnc32)[C@H](O)[C@@H]1O.CCOC1C[C@@]2(C)OC1(C(=O)OC)C(=O)N2C[C@H]1O[C@@H](n2cnc3c(NC(=O)OCc4ccccc4)ncnc32)[C@H](O)[C@@H]1O (some centres not stated)
5 |  | 54.7 | 1.2 | CN1C(=O)C2(C(N)=O)O[C@@]1(C)CC2OC(=O)NC[C@H]1O[C@@H](n2cnc3c(N)ncnc32)[C@H](O)[C@@H]1O.CN1CC2(C(N)=O)O[C@]1(C)C(=O)C2OC(=O)NC[C@H]1O[C@@H](n2cnc3c(N)ncnc32)[C@H](O)[C@@H]1O (some centres not stated)
6 |  | 4.8 | 1.4 | CCOC1CC2OC1(C(=O)OC)C(=O)N2C[C@H]1O[C@@H](n2cnc3c(N)ncnc32)[C@H](O)[C@@H]1O.CCOC1C[C@@]2(C)OC1(C(=O)OC)C(=O)N2C[C@H]1O[C@@H](n2cnc3c(N)ncnc32)[C@H](O)[C@@H]1O (some centres not stated)
